From patent publication US9109043B2 (Tokyo Institute of Technology, priority 2010, dated 2015)
Entries after “also recorded” stand apart in the source; their conditions may differ. Read-outs that look alike come from different tables or passages of the source. Blank lines part the entries; values can stand above or below the molecule they belong to.

Experiments:
[1] = tested on: NIT-1 cells in which insulin secretion regulation factor was forcibly expressed; assay: Insulin secretion by NIT-1 cells with forced expression of insulin secretion regulation factor (ELISA); type: cell-based, mouse
wild type NIT-1 cells = assay: Arginine-induced insulin secretion by wild type NIT-1 cells (ELISA); type: cell-based, mouse; conditions: arginine 0.1-20 mM, 10 minutes, FIG. 4
[2] = target: T1, insulin secretion regulation factor (ATIS1) (Mus musculus, UniProt Q6P5E4); assay: Release of radiolabelled ATIS1 from insulin-immobilized agarose by test substance; type: binding
T1 construct: made in house; host or cells: cell-free: TNT Quick coupled transcription/translation system (Promega)
T1 sequence (Q6P5E4 43-1551): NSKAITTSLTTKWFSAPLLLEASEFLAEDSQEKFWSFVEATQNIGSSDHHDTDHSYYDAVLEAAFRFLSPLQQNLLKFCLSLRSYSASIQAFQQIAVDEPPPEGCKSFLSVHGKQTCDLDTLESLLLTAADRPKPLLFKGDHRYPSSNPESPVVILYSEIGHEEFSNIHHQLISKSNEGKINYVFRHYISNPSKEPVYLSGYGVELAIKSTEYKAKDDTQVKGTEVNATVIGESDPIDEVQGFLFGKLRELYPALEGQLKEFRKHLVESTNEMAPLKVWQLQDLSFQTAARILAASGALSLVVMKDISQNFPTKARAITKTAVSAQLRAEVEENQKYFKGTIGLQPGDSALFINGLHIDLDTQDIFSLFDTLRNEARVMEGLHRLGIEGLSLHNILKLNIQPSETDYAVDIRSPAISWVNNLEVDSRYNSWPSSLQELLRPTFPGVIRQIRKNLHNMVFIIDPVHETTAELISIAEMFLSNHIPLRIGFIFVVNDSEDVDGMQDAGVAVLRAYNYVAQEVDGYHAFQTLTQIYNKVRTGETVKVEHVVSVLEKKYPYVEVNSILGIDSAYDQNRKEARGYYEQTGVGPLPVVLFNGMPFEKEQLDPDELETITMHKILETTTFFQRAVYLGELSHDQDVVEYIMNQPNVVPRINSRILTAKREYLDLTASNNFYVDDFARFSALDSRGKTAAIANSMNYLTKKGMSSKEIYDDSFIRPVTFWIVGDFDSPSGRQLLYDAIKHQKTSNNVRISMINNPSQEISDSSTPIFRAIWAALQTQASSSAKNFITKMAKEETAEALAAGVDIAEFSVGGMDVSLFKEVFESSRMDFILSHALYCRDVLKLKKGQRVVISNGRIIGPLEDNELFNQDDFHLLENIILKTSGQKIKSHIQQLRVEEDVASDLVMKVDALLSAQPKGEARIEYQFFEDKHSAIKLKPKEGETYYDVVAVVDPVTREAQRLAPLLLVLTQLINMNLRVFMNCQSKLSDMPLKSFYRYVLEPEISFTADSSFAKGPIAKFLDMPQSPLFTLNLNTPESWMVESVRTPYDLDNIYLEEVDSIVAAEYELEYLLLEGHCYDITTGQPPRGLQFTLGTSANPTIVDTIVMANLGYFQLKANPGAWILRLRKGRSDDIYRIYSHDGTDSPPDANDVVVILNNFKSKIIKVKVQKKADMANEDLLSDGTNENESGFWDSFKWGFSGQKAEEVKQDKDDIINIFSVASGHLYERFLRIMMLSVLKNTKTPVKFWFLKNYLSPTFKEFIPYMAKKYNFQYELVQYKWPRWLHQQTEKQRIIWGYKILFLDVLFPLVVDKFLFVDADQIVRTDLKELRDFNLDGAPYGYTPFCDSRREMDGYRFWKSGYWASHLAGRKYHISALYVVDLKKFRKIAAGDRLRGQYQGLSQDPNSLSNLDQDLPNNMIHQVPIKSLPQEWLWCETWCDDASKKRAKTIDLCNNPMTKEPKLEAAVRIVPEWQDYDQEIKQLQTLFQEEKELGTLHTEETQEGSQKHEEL

[3] = target: T1, insulin secretion regulation factor (ATIS1); assay: Release of radiolabelled ATIS1 from arginine-immobilized agarose by amino acids and sugars; type: binding; conditions: silver stained gel, FIG. 8A
[4] = tested on: transformed cultured cells secreting fluorescently labeled insulin; assay: Fluorescence microscopy of transformed cultured cells secreting fluorescently labeled insulin; type: cell-based; conditions: arginine 10 mM, 10 and 60 seconds after administration and thereafter, data not shown
Protocol: Thus, transformed cultured cells were prepared so as to secrete fluorescently labeled insulin. Using the cells, it was possible to observe insulin secretion by arginine addition and temporal changes in the intracellular localization of insulin with a fluorescent microscope. […] This experimental system can also be applied to the screening of a candidate substance, other than arginine, that promotes insulin secretion.

[5] = target: T2, insulin secretion regulation factor (Mus musculus, UniProt Q6P5E4); assay: Competitive inhibition of radiolabelled arginine binding to insulin secretion regulation factor; design: made in house; host or cells: Escherichia coli; conditions: increasing concentration of cold competitor, FIG. 2B, FIG. 3A
Target sequence in this assay (Q6P5E4 43-1551): as above

[6] = target: T2, insulin secretion regulation factor; assay: Disconnection of insulin from insulin secretion regulation factor by arginine; type: binding; design: made in house; host or cells: Escherichia coli; conditions: depending on amount of arginine added, FIG. 3C
Target sequence in this assay (Q6P5E4 43-1551): as above

[7] = target: T2, insulin secretion regulation factor; assay: Partial protease digestion of radiolabelled insulin secretion regulation factor in presence of amino acid; type: binding; design: made in house; host or cells: cell-free: TNT Quick coupled transcription/translation system (Promega); conditions: 100 μM arginine, on ice 10 minutes, vs absence, phenylalanine or leucine
Target sequence in this assay (Q6P5E4 whole entry): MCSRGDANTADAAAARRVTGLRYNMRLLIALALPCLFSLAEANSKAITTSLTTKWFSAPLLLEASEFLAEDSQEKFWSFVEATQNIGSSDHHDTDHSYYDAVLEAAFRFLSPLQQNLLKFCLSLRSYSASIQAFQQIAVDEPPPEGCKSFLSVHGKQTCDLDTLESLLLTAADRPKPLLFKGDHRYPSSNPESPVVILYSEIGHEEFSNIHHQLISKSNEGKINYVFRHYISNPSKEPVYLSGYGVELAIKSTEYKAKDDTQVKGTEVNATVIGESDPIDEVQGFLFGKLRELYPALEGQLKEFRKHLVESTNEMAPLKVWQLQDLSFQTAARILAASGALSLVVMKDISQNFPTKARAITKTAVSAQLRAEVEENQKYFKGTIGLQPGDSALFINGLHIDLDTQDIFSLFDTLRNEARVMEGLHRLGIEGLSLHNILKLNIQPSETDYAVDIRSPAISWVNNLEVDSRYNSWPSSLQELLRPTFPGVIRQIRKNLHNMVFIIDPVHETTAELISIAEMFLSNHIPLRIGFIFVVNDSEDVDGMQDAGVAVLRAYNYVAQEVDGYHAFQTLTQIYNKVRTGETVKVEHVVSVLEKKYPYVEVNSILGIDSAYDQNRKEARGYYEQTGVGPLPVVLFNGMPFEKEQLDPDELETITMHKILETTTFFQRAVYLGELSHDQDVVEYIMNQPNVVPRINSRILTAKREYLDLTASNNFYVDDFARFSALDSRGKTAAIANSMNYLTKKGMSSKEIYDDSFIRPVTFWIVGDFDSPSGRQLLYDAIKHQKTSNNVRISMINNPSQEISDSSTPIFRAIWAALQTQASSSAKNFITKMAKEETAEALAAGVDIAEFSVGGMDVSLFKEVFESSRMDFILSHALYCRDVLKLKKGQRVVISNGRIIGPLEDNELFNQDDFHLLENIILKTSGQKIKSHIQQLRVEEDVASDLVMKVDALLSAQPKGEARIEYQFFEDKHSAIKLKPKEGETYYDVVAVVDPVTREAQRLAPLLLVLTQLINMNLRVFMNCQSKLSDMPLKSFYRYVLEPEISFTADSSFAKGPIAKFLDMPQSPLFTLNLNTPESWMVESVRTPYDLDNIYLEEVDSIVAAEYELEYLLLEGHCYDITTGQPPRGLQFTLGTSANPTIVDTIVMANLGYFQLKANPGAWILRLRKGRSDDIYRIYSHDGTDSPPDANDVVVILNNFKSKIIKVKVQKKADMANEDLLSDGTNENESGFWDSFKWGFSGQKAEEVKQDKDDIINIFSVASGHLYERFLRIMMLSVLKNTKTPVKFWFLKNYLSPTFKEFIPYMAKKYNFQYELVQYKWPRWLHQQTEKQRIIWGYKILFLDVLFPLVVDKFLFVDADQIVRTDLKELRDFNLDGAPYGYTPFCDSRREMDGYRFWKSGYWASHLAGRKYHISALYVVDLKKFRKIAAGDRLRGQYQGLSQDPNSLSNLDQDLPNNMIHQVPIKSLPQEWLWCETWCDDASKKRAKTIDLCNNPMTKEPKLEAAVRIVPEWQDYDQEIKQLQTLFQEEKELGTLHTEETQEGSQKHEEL

SMILES: N=C(N)NCCC[C@H](N)C(=O)O [arginine]
- amount of insulin secreted per unit time [1]: about 2 pg/cell/min
- arginine-induced insulin secretion (wild type NIT-1 cells): depending on arginine concentration, insulin secretion is promoted
- competition with insulin for insulin secretion regulation factor [2]: competes with insulin
- interaction (binding) with insulin secretion regulation factor ATIS1 [3]: interacted with the insulin secretion regulation factor
- intracellular localization and secretion of fluorescently labeled insulin [4]: being extracellularly secreted thereafter resulting in the disappearance of fluorescence
- radiolabelled arginine disconnected from insulin secretion regulation factor [5]: the radiolabelled arginine that had been bound was disconnected from insulin secretion regulation factor; also recorded: the amount of disconnected radiolabelled arginine increased
- insulin disconnected from insulin secretion regulation factor [6]: the amount of disconnected insulin increases
- resistance of insulin secretion regulation factor to chymotrypsin partial digestion [7]: significant resistance to chymotrypsin partial digestion
- resistance of insulin secretion regulation factor to trypsin partial digestion ([7]; FIG. 2C): significant resistance to trypsin partial digestion

- competition with insulin for insulin secretion regulation factor ([2]; autoradiography, FIG. 6B): competes with insulin
SMILES: CC(C)=CCc1cc(/C=C/C(=O)O)ccc1O [drupanin]
- amount of insulin secreted per unit time ([1]; 10 mM substance, cultured 10 minutes, FIG. 6A): about 2 pg/cell/min

- interaction (binding) with insulin secretion regulation factor ATIS1 [3]: did not bind to ATIS1
SMILES: N[C@@H](Cc1ccccc1)C(=O)O [Phenylalanine, phenylalanine]

SMILES: NCCCC[C@H](N)C(=O)O [lysine]
- interaction (binding) with insulin secretion regulation factor ATIS1 [3]: interacted with the insulin secretion regulation factor

SMILES: NCCC[C@H](N)C(=O)O [ornithine]
- interaction (binding) with insulin secretion regulation factor ATIS1 [3]: interacted with the insulin secretion regulation factor

SMILES: NC(=O)NCCC[C@H](N)C(=O)O [citrulline]
- interaction (binding) with insulin secretion regulation factor ATIS1 [3]: did not exhibit the ATIS1 binding activity
